We go through five compounds from ChEMBL document CHEMBL1201862, “PubChem BioAssay data set” (2004).

Structures are written as SMILES. Calls of active or inactive are those of the source. A value given as a limit tells only on which side of the number the result lay.

One may read the IC50 as the concentration that inhibits the measured activity by half. For orientation: Ki means the equilibrium dissociation constant of an inhibitor or competing ligand from its target. What is called AC50 is the concentration at which the activity in the assay is half-maximal.

Assay [1] in a line: cAMP pathway inhibition in counterscreen cell line – TR-FRET cAMP detection, counter-screen for MC4R biased antagonist project, dose response (AID 602305).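 Note: U2OS cells stimulated with forskolin near its EC80 as the cAMP inducer; potency is for inhibition of forskolin-stimulated cAMP signaling.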 The format is functional, cell-based. In general terms: A counterscreen serves to expose hits that act by an unwanted route or on another target.
The target in the next assay is Melanocortin receptor 4 (Homo sapiens, UniProt P32245). Briefly: inhibitors of MC4R cAMP signaling – cell-based, TR-FRET, biased antagonists, dose response (AID 602298).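 Note: antagonist potency against agonist-stimulated cAMP production.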 The format is functional. (In TR-FRET formats the signal depends on donor and acceptor labels being close together.)
The next assay deals with H9c2. Briefly: cells. To be noted: Rattus norvegicus, H9c2, Myocardium. In kind it is functional, cell-based.
The next assay concerns the target Misshapen-like kinase 1 (Homo sapiens, UniProt Q8N4C8). The format is functional.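 Note: kinome panel screen with MINK as the panel member.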
Assay [2] deals with Serine/threonine-protein kinase TAO1 (Homo sapiens, UniProt Q7L7X3). The format is functional.
For assay [3], the target named is Mitogen-activated protein kinase kinase kinase kinase 4 (Homo sapiens, UniProt O95819). In kind it is functional.
For assay [4], the target named is Serine/threonine-protein kinase N2 (Homo sapiens, UniProt Q16513). In kind it is functional.
The target in assay [5] is Tyrosine-protein kinase Lck (Homo sapiens, UniProt P06239). The format is functional.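 Note: lck was assayed as one member of a kinase panel.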
Assay [6] deals with Tyrosine-protein kinase Fyn (Homo sapiens, UniProt P06241). The format is functional.
The target of assay [7] is Tyrosine-protein kinase ABL1 (Homo sapiens, UniProt P00519). The format is functional.
Assay [8] concerns the target Vascular endothelial growth factor receptor 2 (Homo sapiens, UniProt P35968). The format is functional.
The next assay has as its target Focal adhesion kinase 1 (Homo sapiens, UniProt Q05397). In kind it is functional.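 Note: measured as one member of a kinome panel.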
Assay [9] deals with Tyrosine-protein kinase BTK (Homo sapiens, UniProt Q06187). In kind it is functional.
For assay [10], the target named is cAMP-dependent protein kinase catalytic subunit alpha (Homo sapiens, UniProt P17612). The format is functional.
Assay [11] deals with Dual specificity protein kinase CLK4 (Homo sapiens, UniProt Q9HAZ1). In kind it is functional.
Assay [12] addresses MAP kinase-interacting serine/threonine-protein kinase 2 (Homo sapiens, UniProt Q9HBH9). In kind it is functional.
Assay [13] has as its target Cell division cycle 7-related protein kinase (Homo sapiens, UniProt O00311). In kind it is functional.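 Note: value obtained from a kinome-wide kinase panel.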
In assay [14] the target is Interleukin-1 receptor-associated kinase 4 (Homo sapiens, UniProt Q9NWZ3). The format is functional.
Assay [15] deals with Glycogen synthase kinase-3 beta (Homo sapiens, UniProt P49841). The format is functional.
In assay [16] the target is Homeodomain-interacting protein kinase 2 (Homo sapiens, UniProt Q9H2X6). The format is functional.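 Note: measured within a kinome-wide kinase profiling panel, HIPK2 being one panel member.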
Sequence of Homeodomain-interacting protein kinase 2 (Q9H2X6 whole entry): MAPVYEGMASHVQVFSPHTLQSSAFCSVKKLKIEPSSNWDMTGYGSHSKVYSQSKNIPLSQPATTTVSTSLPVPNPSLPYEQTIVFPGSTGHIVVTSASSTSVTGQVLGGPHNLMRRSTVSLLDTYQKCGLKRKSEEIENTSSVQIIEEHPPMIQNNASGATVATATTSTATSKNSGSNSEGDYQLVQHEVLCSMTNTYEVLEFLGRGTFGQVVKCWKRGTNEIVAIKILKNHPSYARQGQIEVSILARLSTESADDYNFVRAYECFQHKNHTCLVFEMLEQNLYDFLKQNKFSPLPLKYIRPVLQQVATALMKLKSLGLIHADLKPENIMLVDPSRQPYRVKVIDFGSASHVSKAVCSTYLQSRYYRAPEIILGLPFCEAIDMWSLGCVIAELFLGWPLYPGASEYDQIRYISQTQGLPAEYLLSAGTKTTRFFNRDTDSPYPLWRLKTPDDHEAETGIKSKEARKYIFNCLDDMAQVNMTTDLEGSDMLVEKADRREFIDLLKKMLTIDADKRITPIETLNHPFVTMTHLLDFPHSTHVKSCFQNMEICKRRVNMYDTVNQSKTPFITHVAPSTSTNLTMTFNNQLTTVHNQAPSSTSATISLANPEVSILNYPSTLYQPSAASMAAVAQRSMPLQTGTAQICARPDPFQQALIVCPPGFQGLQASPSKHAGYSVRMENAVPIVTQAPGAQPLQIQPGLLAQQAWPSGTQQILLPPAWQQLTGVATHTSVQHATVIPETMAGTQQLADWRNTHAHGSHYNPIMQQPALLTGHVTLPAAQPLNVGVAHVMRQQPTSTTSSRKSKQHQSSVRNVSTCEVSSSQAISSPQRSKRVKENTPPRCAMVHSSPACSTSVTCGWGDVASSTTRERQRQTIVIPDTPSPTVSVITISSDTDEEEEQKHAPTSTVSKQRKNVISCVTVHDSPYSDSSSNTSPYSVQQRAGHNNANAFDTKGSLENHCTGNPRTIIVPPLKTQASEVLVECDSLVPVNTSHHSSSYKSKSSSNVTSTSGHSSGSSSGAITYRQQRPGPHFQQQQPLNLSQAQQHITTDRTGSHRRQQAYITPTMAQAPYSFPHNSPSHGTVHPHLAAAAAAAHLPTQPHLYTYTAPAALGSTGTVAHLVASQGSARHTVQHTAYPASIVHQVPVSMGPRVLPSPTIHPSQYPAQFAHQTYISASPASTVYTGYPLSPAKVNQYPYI
In assay [17] the target is Serine/threonine-protein kinase pim-1 (Homo sapiens, UniProt P11309). The format is functional.
Sequence of Serine/threonine-protein kinase pim-1 (P11309 whole entry): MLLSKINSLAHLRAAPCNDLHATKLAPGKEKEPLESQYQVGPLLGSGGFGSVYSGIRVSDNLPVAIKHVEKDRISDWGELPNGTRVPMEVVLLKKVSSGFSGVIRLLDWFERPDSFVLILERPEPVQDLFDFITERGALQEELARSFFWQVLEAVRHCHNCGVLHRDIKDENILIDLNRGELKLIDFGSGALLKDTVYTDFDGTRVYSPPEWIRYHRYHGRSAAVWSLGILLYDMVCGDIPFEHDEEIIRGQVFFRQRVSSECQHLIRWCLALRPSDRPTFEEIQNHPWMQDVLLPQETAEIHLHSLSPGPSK
For assay [18], the target named is Protein disulfide-isomerase (Homo sapiens, UniProt P07237). Nature of the assay: inhibition of PDI-driven insulin aggregation – biochemical, turbidity, absorbance, cherry-picked samples, dose response (AID 602350). In kind it is functional.
Sequence of Protein disulfide-isomerase (P07237 whole entry): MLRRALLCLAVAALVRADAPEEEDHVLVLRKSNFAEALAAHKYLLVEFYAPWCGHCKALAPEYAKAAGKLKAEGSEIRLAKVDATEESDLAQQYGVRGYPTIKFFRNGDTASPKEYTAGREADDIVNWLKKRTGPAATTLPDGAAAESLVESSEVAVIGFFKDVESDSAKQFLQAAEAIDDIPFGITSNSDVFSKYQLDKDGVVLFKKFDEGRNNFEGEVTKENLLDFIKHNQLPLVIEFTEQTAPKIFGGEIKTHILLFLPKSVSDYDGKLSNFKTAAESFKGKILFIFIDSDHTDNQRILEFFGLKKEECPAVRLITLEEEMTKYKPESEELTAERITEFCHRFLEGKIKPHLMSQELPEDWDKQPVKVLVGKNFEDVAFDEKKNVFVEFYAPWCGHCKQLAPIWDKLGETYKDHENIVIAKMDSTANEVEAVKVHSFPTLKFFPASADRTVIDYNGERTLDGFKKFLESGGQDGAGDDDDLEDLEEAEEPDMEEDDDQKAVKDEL
In assay [19] the target is Serine/threonine-protein kinase D3 (Homo sapiens, UniProt O94806). In kind it is functional.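 Note: determined within a kinase panel screen, with PRKCN as the panel member.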
For assay [20], the target named is Glycogen synthase kinase-3 alpha (Homo sapiens, UniProt P49840). In kind it is functional.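 Note: GSK3A result taken from a broad kinome-wide kinase panel.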
In assay [21] the target is 5'-AMP-activated protein kinase catalytic subunit alpha-1 (Homo sapiens, UniProt Q13131). In kind it is functional.
In assay [22] the target is Rho-associated protein kinase 1 (Homo sapiens, UniProt Q13464). The format is functional.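 Note: measured within a broad kinome-wide panel profiling many kinases.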
Assay [23] concerns the target Leukocyte tyrosine kinase receptor (Homo sapiens, UniProt P29376). Briefly: Navigating the Kinome. Panel member name: LTK. The format is functional.
Assay [24] deals with Mitogen-activated protein kinase kinase kinase kinase 2 (Homo sapiens, UniProt Q12851). The format is functional.
Assay [25] addresses Vascular endothelial growth factor receptor 1 (Homo sapiens, UniProt P17948). In kind it is functional.
The target in assay [26] is Calcium/calmodulin-dependent protein kinase kinase 2 (Homo sapiens, UniProt Q96RR4). Nature of the assay: Navigating the Kinome. Panel member name: CAMKK2. In kind it is functional.
Assay [27] addresses Platelet-derived growth factor receptor beta (Homo sapiens, UniProt P09619). In kind it is functional.
In assay [28] the target is T1, cAMP-dependent protein kinase catalytic subunit PRKX (Homo sapiens, UniProt P51817).
T1 sequence (P51817 whole entry): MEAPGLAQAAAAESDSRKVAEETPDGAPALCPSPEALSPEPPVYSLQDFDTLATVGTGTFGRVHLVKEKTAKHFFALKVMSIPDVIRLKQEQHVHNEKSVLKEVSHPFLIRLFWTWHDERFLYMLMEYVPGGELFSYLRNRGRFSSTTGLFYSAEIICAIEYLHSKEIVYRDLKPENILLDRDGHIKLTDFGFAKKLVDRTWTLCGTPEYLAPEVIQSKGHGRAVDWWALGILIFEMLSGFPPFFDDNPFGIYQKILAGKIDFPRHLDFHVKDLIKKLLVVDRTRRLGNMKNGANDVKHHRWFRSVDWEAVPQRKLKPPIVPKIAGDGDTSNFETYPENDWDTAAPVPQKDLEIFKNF
The format is functional.

Assay [29] has as its target Serine/threonine-protein kinase 3 (Homo sapiens, UniProt Q13188). The format is functional.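 Note: measured as one member of a kinome-wide kinase panel.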
Assay [30] concerns the target Cyclin-dependent kinase 7 (Homo sapiens, UniProt P50613). The format is functional.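 Note: value comes from a kinome-wide kinase profiling panel in which CDK7 is one member.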
Assay [31] concerns the target ALK tyrosine kinase receptor (Homo sapiens, UniProt Q9UM73). The format is functional.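 Note: ALK tested as one member of a kinase panel screen.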
Assay [32] concerns the target Cyclin-dependent kinase 5 (Homo sapiens, UniProt Q00535). In kind it is functional.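 Note: CDK5 measured as one member of a kinase profiling panel.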
Assay [33] has as its target Maternal embryonic leucine zipper kinase (Homo sapiens, UniProt Q14680). In kind it is functional.
The target in another assay is Aurora kinase B (Homo sapiens, UniProt Q96GD4). In kind it is functional.
Assay [34] has as its target Proto-oncogene tyrosine-protein kinase ROS (Homo sapiens, UniProt P08922). The format is functional.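 Note: ROS1 tested as one member of a kinome-wide kinase panel.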
Assay [35] addresses Macrophage-stimulating protein receptor (Homo sapiens, UniProt Q04912). Nature of the assay: Navigating the Kinome. Panel member name: MST1R. The format is functional.
Assay [36] concerns the target Tyrosine-protein kinase HCK (Homo sapiens, UniProt P08631). Briefly: Navigating the Kinome. Panel member name: HCK. In kind it is functional.
In assay [37] the target is Death-associated protein kinase 3 (Homo sapiens, UniProt O43293). The format is functional.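 Note: measured as one member of a kinome-wide profiling panel.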
Sequence of Death-associated protein kinase 3 (O43293 whole entry): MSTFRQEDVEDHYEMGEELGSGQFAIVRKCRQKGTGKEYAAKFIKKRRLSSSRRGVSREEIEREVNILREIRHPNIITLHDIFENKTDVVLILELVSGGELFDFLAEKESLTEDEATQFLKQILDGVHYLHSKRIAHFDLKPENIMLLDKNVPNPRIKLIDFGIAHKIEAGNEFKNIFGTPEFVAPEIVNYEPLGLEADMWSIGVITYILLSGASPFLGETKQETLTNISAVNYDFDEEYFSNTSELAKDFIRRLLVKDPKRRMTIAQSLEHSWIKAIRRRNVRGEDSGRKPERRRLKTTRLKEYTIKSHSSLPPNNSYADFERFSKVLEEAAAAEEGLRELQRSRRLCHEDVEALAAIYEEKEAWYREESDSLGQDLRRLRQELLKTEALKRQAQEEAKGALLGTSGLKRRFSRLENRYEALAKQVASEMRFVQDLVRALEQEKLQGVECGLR
The target of assay [38] is Platelet-derived growth factor receptor alpha (Homo sapiens, UniProt P16234). Nature of the assay: Navigating the Kinome. Panel member name: PDGFRA. In kind it is functional.
The target in a further assay is LIM domain kinase 1 (Homo sapiens, UniProt P53667). Briefly: Navigating the Kinome. Panel member name: LIMK1. In kind it is functional.
Assay [39] concerns the target Cyclin-dependent kinase 9 (Homo sapiens, UniProt P50750). The format is functional.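 Note: value from the CDK9 entry of a kinome-spanning kinase panel.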

Sequence of Vascular endothelial growth factor receptor 2 (P35968 whole entry): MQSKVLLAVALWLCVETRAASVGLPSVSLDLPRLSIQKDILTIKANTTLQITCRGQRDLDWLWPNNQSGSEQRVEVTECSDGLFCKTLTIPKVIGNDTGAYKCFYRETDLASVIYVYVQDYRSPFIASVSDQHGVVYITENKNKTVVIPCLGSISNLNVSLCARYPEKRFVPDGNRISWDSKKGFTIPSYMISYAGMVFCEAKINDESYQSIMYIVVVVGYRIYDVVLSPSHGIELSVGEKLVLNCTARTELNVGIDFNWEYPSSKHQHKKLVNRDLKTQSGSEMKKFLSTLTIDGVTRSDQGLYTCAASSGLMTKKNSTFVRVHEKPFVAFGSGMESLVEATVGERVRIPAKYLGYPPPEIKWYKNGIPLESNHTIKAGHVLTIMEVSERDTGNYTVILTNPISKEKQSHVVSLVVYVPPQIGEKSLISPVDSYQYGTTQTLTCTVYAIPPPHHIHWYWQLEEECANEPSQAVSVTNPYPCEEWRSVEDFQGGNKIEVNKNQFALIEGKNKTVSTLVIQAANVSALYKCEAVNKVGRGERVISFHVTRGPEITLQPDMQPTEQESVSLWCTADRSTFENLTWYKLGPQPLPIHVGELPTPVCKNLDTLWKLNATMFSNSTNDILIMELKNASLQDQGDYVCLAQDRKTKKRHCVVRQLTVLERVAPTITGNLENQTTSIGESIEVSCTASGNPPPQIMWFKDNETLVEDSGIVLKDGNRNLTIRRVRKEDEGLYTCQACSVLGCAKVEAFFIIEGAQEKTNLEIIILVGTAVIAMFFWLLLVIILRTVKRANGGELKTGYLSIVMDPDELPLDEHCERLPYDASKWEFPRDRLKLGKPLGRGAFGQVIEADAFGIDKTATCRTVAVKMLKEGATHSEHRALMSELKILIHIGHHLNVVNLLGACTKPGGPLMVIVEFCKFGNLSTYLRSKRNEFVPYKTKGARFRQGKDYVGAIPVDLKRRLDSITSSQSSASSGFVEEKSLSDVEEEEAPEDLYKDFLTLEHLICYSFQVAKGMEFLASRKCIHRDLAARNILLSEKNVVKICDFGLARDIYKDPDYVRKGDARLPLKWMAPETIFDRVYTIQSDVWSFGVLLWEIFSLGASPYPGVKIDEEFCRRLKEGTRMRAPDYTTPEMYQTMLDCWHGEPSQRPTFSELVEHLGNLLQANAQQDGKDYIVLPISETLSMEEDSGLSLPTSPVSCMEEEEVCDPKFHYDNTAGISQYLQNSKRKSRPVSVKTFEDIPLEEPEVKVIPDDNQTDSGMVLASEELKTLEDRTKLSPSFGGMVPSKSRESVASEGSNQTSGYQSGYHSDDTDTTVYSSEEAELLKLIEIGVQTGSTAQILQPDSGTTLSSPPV
Sequence of Cyclin-dependent kinase 9 (P50750 whole entry): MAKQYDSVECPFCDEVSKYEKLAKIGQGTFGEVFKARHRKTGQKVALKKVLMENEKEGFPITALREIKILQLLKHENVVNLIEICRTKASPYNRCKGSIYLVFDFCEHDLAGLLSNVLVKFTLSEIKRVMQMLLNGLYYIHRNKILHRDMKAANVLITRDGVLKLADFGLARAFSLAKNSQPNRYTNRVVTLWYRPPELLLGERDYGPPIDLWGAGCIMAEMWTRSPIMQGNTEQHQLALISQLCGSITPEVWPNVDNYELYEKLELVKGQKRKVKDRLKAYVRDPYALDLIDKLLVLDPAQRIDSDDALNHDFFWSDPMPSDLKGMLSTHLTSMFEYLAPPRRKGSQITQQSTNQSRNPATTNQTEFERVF
Sequence of Leukocyte tyrosine kinase receptor (P29376 whole entry): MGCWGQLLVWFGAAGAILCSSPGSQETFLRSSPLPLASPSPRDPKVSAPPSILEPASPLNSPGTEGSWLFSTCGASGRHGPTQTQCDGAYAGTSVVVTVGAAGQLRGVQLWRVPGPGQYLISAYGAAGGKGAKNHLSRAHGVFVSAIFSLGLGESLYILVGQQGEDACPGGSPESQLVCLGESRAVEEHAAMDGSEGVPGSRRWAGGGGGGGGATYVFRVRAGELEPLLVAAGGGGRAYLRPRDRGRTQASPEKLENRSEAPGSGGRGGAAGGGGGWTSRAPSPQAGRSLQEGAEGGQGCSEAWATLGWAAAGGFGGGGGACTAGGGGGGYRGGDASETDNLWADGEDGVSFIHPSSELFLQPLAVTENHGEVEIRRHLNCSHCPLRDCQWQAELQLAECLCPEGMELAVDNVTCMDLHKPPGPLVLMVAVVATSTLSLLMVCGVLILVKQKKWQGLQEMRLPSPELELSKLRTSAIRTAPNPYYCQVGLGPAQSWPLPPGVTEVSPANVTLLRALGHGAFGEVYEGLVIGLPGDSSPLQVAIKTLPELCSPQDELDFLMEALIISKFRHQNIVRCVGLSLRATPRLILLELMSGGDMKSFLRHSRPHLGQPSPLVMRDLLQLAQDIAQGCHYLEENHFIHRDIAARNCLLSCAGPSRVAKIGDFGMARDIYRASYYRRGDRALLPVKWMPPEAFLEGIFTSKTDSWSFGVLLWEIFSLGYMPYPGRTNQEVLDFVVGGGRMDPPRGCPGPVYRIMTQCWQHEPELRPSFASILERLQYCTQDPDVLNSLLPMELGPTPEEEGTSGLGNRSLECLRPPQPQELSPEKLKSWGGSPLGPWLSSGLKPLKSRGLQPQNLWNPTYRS

For the compound `CS(=O)(=O)Nc1cccc(NC(=O)c2cccc3c(-c4cccc(C(N)=O)c4)coc23)c1`, the values for the IC50 (in [1]; at Melanocortin receptor 4; in the assay with H9c2) were > 64.6 µM (inactive), > 64.6 µM (inactive) and > 79 µM (inactive), respectively.
Regarding `CN(C)c1c(NC(=O)c2c(F)cccc2F)cccc1-c1nc2sccn2c1-c1ccnc(Nc2cccc(N3CCOCC3)c2)n1`, the Ki on Misshapen-like kinase 1 was > 5.01 µM (inactive); in assay [2] it was > 6.31 µM (inactive); in [3], 1.26 µM (active); in assay [4], > 5.01 µM (inactive); in [5], 501 nM (active); in assay [6], > 6.31 µM (inactive). Besides, the Ki in [7] is 501 nM (active); in assay [8] it was 2 µM (active); on Focal adhesion kinase 1, > 6.31 µM (inactive); in assay [9], > 6.31 µM (inactive).
As to `Cc1cccc(CNc2cc(-c3c[nH]c4ncccc34)ncn2)c1`, the Ki in assay [10] is 158 nM (active); in assay [11], 6.31 nM (active); in assay [12], 158 nM (active); in assay [13], 2.51 nM (active); in assay [14], 501 nM (active); in assay [15], 7.94 nM (active). Further, the results for the Ki in [16] and in [17] were 158 nM (active) and 126 nM (active), respectively.
For `CCN1C[C@]2(COC(=O)c3ccccc3N)CC[C@H](OC)C34[C@@H]5C[C@H]6[C@H](OC)[C@@H]5[C@](O)(C[C@@H]6OC)[C@@](O)([C@H]13)[C@@H](OC)[C@@H]42`, the AC50 in [18] was 19.5 µM (active).
As to `CCN1CCN(Cc2ccc(NC(=O)Nc3ccc(Oc4cc(NC)ncn4)cc3)cc2C(F)(F)F)CC1` [AST-487], the Ki in assay [19] is > 3.98 µM (inactive); in assay [20], > 3.98 µM (inactive); in assay [21], > 3.16 µM (inactive); in assay [22], > 3.98 µM (inactive); in [23], 631 nM (active); in assay [24] it was 79.4 nM (active). Moreover, the Ki in assay [25] is 31.6 nM (active); in assay [26], 794 nM (active); in assay [27], 7.94 nM (active); in assay [28], > 3.16 µM (inactive); in [29], > 2.51 µM (inactive); in [30], > 5.01 µM (inactive). Besides, the Ki in assay [31] was > 6.31 µM (inactive); in assay [32], > 3.16 µM (inactive); in [33] it was 126 nM (active); at Aurora kinase B, > 3.98 µM (inactive); in [34] it was 2 µM (active); in assay [35], > 3.98 µM (inactive). In addition, the Ki was 100 nM (active) in assay [36]; 3.98 µM (active) in [37]; 0.00251 µM (active) in assay [8]; 79.4 nM (active) in assay [38]; > 3.16 µM (inactive) at LIM domain kinase 1; > 1.58 µM (inactive) in assay [39].
